Results from article PMC12154426, “TPP-Based Nanovesicles Kill MDR Neuroblastoma Cells and Induce Moderate ROS Increase, While Exerting Low Toxicity Towards Primary Cell Cultures: An In Vitro Study” (International Journal of Molecular Sciences, 2025).
Values joined by “and” are separate entries in the source; they are usually repeats but may differ in a detail not shown here. Equal values may be shown once.

Tests used:
HTLA ER = experiment: DAPI and Annexin-V/PI staining (necrosis/apoptosis), HTLA ER; assay type: cell-based, human; details: 24 h
Excerpt: Although it has been reported that diverse therapeutic approaches to counteract cancer, including chemotherapeutic drugs, gamma irradiation, suicide genes, or immunotherapy, are mediated through the induction of apoptosis, also necrosis, as well as other forms of cell death, that are not classified so far, may be triggered by anticancer therapies. Here, to evaluate if BPPB induced apoptosis or necrosis, both NB cell populations were labelled with Annexin-V-FITC/propidium iodide (PI) and analysed by confocal fluorescence microscopy, as reported in the literature. This is a standard procedure to monitor the progression of apoptosis and the possible presence of necrosis. […]
After the treatment, cells were washed with PBS and stained with the fluorescent DNA dye DAPI (1 µg/mL) for 30 min. After additional washing, the images were immediately acquired in the fluorescence mode using a Nikon AX R confocal microscope equipped with a PLAN APO 20× (Nikon Europe, B.V., Amstelveen, The Netherlands).
Apoptotic and necrotic cells were analysed, as described in Marengo et al.. […] After staining, the images were immediately acquired in fluorescence mode using a Nikon AX R confocal microscope equipped with a PLAN APO 20× (Nikon Europe, B.V., Amstelveen, The Netherlands).

spinal cord astrocytes = experiment: MTT cytotoxicity assay on spinal cord astrocyte primary cell cultures; assay type: cell-based, C57BL/6J mice; details: for IC50: 0.12–11.73 µM
Excerpt: (§1) Similarly to the assessment of haemolytic toxicity, the evaluation of cytotoxicity towards mammalian cells is another pivotal step to afford in the early stage of drug development, before undertaking other costly and time-consuming in vivo experiments. […] The cytotoxicity of quaternary phosphonium salts (QPSs) depends mainly on their physicochemical characteristics, including the number of carbon atoms of alkyl chains, the presence of aromatic ring(s) on which the P^+ cationic charge can delocalize, the type of counter anions, the possible colloidal properties, and the probable capability to form nano aggregates. The specific types of cells exposed to QPSs can further influence their cytotoxicity. In this regard, the constituents of membranes of cancer cells are different from those of mammalian cells. This makes them more susceptible to the disruptive action of cationic compounds, thus making QPSs’ possible cytotoxicity towards tumour cells higher than towards normal ones. Anyway, a certain cytotoxicity could manifest also in normal cells and quantifying it is mandatory. Based on these considerations, although NB is a neuroendocrine tumour which derives from neural crest cells, we investigated the BPPB toxic effects on primary cell cultures, namely spinal cord astrocytes and cortical neurons. Astrocyte primary cultures have emerged as an important tool for understanding the responses of normal cells under both physiological and pathological conditions. On the other hand, primary neuronal cell cultures are best suited for drug discovery and drug development. Primary cell cultures freshly prepared from animals reproduce physiological conditions astonishingly like the in vivo situation. As for our knowledge, it is the first time that the cytotoxicity of a bola amphiphilic compound is assessed on primary cultures of astrocytes and neurons. More generically, the existent studies on the cytotoxicity of synthetic QPSs, or of a generic exogenous synthetic cationic organic compound or polymer on astrocytes and neurons primary cell cultures, are limited. As examples, upon a rapid survey, we have found a study on the mechanism by which amine-modified cationic polystyrene nanoparticles induced cell death in a human brain astrocytoma cell line, but not in primary astrocytes. A study on the mechanism by which endogenous eosinophil cationic protein/RNase 3 induced cell death in primary astrocytes was found, but exogenous synthetic cationic compounds were not considered. Concerning primary neurons, the cytotoxicity of both a commercial (LA2000) and a newly prepared cationic lipid (Arg (TFA^−)) vs. primary neurons was assessed by Aoshima et al.. The cytotoxicity of a library of 80 compounds, among which only 2/3 molecules were cationic salts, was evaluated in human-induced pluripotent stem cell (iPSC)-derived neural stem cells, neurons, and astrocytes by Pei et al.. Vidal et al. assessed the neurotoxicity of a cationic fourth generation (G4) amine dendrimer (G4-NH2) towards primary neuron cell cultures. […] Cell viability in neurons and astrocytes, treated with increasing concentrations of BPPB for 24, 48, and 72 h, was assessed using the MTT essay, which is a method endowed with simplicity, convenience, quantitative and high throughput, as well as reproducibility. MTT is a well-established method for assessing cell viability, and its reliability is supported by standardized protocols in many areas of research.
Astrocytes were prepared from the spinal cord of neonatal 2-day-old C57BL/6J mice as previously described, with minor modifications. Briefly, two days after birth, pups (P1-2) were euthanized by cervical dislocation by trained personnel, and spinal cords were rapidly removed. […]

cortical neurons = experiment: MTT cytotoxicity assay on cortical neuron primary cell cultures; assay type: cell-based, Sprague Dawley rat; details: for IC50: 0.12–11.73 µM
Excerpt: as §1
Cortical neurons were prepared from the cortex of E16-E17 Sprague Dawley rat embryos, as previously described. The cortex was removed under binocular dissection (Nikon SMZ-2T, Tokyo, Japan) in a physiologic medium composed of 120 mM NaCl, 5 mM KCl, 25 mM HEPES, and 9 mM glucose (HIB, pH 7.4) at 4 °C. […]

In the case of c1ccc([P+](CCCCCCCCCCCC[P+](c2ccccc2)(c2ccccc2)c2ccccc2)(c2ccccc2)c2ccccc2)cc1 [BPPB, 1,1-(1,12-dodecanediyl)-bis-[1,1,1]-triphenyl phosphonium di-bromide], the “apoptosis (Annexin V-FITC / PI labelling)” value (HTLA ER; 1 µM) is reported as “marked apoptosis”, the “necrosis (DAPI labelling)” value (HTLA ER; 1.0 µM) is reported as “did not induce the necrosis” and the cell viability (spinal cord astrocytes; 1.17 µM, 48 h) is reported as 72.17%. For the same molecule, the cell viability (spinal cord astrocytes; 1.17 µM, 72 h) was 69.31%, the cell viability (spinal cord astrocytes; 2.93 µM, 24 h) was 74.95% and the cell viability (spinal cord astrocytes; 8.80 µM, 24 h) was 47.14%. The cell viability (spinal cord astrocytes; 8.80 µM, 72 h) was 42.70%, the cell viability (spinal cord astrocytes; 11.73 µM, 24 h) was 20.22% and the cell viability (spinal cord astrocytes; 11.73 µM, 48 h) was 45.18%. For the same molecule, the IC50 (spinal cord astrocytes; 24 h exposure) was ~7.04 µM and 7.04 µM, the IC50 (spinal cord astrocytes; 48 h exposure) was 11 ± 5.09 µM and the IC50 (spinal cord astrocytes; 72 h exposure) was 5.09 ± 1.22 µM. For the same molecule, the “SI values with respect to primary spinal cord astrocytes” value (spinal cord astrocytes; HTLA 230 and HTLA ER, all exposure timings) was 4.25–23.73, the selectivity index values (spinal cord astrocytes; NB cells with respect to neurons and astrocytes, maximum) was “up to 23.7” and the “SI 24 h” value (spinal cord astrocytes; Spinal cord astrocytes vs. HTLA 230, 24 h) was 7.61. For the same molecule, the “SI 48 h” value (spinal cord astrocytes; Spinal cord astrocytes vs. HTLA 230, 48 h) was 23.73, the “SI 72 h” value (spinal cord astrocytes; Spinal cord astrocytes vs. HTLA 230, 72 h) was 13.09 and the “SI 24 h” value (spinal cord astrocytes; Spinal cord astrocytes vs. HTLA ER, 24 h) was 5.69. For the same molecule, the “SI 48 h” value (spinal cord astrocytes; Spinal cord astrocytes vs. HTLA ER, 48 h) was 8.10, the “SI 72 h” value (spinal cord astrocytes; Spinal cord astrocytes vs. HTLA ER, 72 h) was 4.25 and the cell viability (cortical neurons; 0.12 µM, 24 h) was 89.49%. For the same molecule, the cell viability (cortical neurons; 0.12 µM, 48 h) was 96.77%, the cell viability (cortical neurons; 0.12 µM, 72 h) was 95.90% and the cell viability (cortical neurons; 0.29 µM, 72 h) was 71.80%. The cell viability (cortical neurons; 1.80 µM, 48 h) was 57.15%, the cell viability (cortical neurons; 11.73 µM (10.0 µg/mL), 24 h) was 14.80% and the cell viability (cortical neurons; 11.73 µM (10.0 µg/mL), 48 h) was 20.03%. For the same molecule, the cell viability (cortical neurons; 11.73 µM (10.0 µg/mL), 72 h) was 10.63%, the IC50 (cortical neurons; 24 h exposure) was 1.56 ± 0.278 µM and the IC50 (cortical neurons; 48 h exposure) was 2.21 ± 0.337 µM. The IC50 (cortical neurons; 72 h exposure) was 0.763 ± 0.127 µM, the “SI 24 h” value (cortical neurons; Cortical neurons vs. HTLA 230, 24 h) was 1.69 and the “SI 48 h” value (cortical neurons; Cortical neurons vs. HTLA 230, 48 h) was 4.78. The “SI 72 h” value (cortical neurons; Cortical neurons vs. HTLA 230, 72 h) was 1.96, the “SI 24 h” value (cortical neurons; Cortical neurons vs. HTLA ER, 24 h) was 1.26 and the “SI 48 h” value (cortical neurons; Cortical neurons vs. HTLA ER, 48 h) was 1.63. For the same molecule, the “SI 72 h” value (cortical neurons; Cortical neurons vs. HTLA ER, 72 h) was 0.64 and the “SI values with respect to primary cortical neurons” value (cortical neurons; HTLA 230 and HTLA ER, all exposure timings except HTLA ER 72 h) was 1.26–4.78.
